Reference: patent US20150329918A1, “JAGGED1 AS A MARKER AND THERAPEUTIC TARGET FOR BREAST CANCER BONE METASTASIS” (The Trustees of Princeton University, priority 2011, published 2015)

Assays:
Notch [1] = conditions: cited from earlier work
[2] = test system: JAG1 OE tumor cells bone metastasis; assay: Bone metastasis xenograft, JAG1 OE tumor cells, MRK-003 treatment; assay type: in vivo, mouse
Method: For bone metastsis studies, 10^5 tumor cells were injected into the left cardiac ventricle of anesthetized female athymic Ncr-nu/nu or BALB/c mice. Development of metastases was monitored by BLI. Bioluminescence images were acquired with a Xenogen IVIS 200 Imaging System. Analysis was performed with Living Image software by measuring photon flux in the hindlimbs of mice. Data were normalized to the signal on day 7. Bone metastasis-free survival curves represent the time point at which each mouse developed bone metastasis by threshold BLI signals in the hindlimbs. […]
Osteolysis was assessed by X-ray radiography. […] Osteolytic lesions were identified on radiographs as demarcated radiolucent lesions in the bone and quantified using the ImageJ software (National Institutes of Health).
Hindlimb bones were excised from mice at the end point of each experiment, immediately after the last BLI time point. […] For quantitative analysis of lesion area, a 5× objective was used to focus on the tumor region of interest and images were acquired using the AxioCamICc3 camera set to an exposure of 100 ms. Lesions that were larger than the field of view were quantified by acquiring multiple images to encompass the entire lesion. The “spline” function of the AxioVision software was used to outline the region of interest and subsequently quantify the lesion area. […]

[3] = test system: primary mammary tumors of MDA231 sublines; assay: Orthotopic primary mammary tumor xenograft; conditions: mouse, in vivo
Method: (§1) For bone metastsis studies, 10^5 tumor cells were injected into the left cardiac ventricle of anesthetized female athymic Ncr-nu/nu or BALB/c mice. Development of metastases was monitored by BLI. Bioluminescence images were acquired with a Xenogen IVIS 200 Imaging System. Analysis was performed with Living Image software by measuring photon flux in the hindlimbs of mice. Data were normalized to the signal on day 7. Bone metastasis-free survival curves represent the time point at which each mouse developed bone metastasis by threshold BLI signals in the hindlimbs. For the orthotopic xenograft model, mammary fat pad injections and primary tumor size measurements were performed following the procedure described previously (Minn et al., 2005, which is incorporated herein by reference as if fully set forth).
(§2) MRK-003 is a potent and specific gamma-secretase inhibitor whose biochemical, cellular and pharmacological properties have been extensively studied and reported. MRK-003 is a cyclic sulfamide with sub-nanomolar potency inhibiting gamma-secretase-mediated cleavage of Notch to its active form (NICD) (Lewis et al., 2007, which is incorporated herein by reference as if fully set forth). […] For xenograft experiments, mice were administered the vehicle (0.5% methylcellulose) or MRK-003 by oral gavage twice a week at a 100 mg/kg dosage. The dosing schedule was 2-days on, 5-days off. […]

[4] = test system: Notch target genes (Hes1, Hey1, HeyL and TGFβ1); assay: qRT-PCR of Notch target genes in MC3T3-E1 osteoblasts FACS-separated from cocultures; assay type: cell-based, mouse; conditions: osteoblasts FACS-separated from JAG1 OE coculture; FIG. 7B
Method: For gene expression analysis, MC3T3-E1 cells were grown to confluence in 10 cm culture dishes. The 2×10^5 GFP+ control or JAG1 OE cells were seeded onto the plate in osteoblast media. Cell sorting was performed to purify the GFP-negative MC3T3-E1 osteoblasts 5 days after initial coculture. RNA from FACS-separated MC3T3-E1 cells was collected in RLT lysis buffer, extracted with RNeasy Mini Kit (QIAGEN), and subjected to quantitative RT-PCR.
(§3) RNA from in vitro cultured cells or flow cytometry-separated cells was collected in RLT lysis buffer and extracted with RNeasy mini kit (Qiagen). RNA extraction from in vivo tissue samples was performed using Trizol (Invitrogen) according to the manufacturer's protocol. cDNA synthesis of RNA was performed using Superscript III First-Strand (Invitrogen). Quantitative RT-PCR was performed using Power Syber Green PCR Master Mix (Applied Biosystems) with the ABI Prism 7900HT thermocycler (Applied Biosystems) according to the manufacturer's protocol. A standard curve for each gene was generated by serial dilutions of a standard. Values were then normalized by the amount of GAPDH or β-actin in each sample. For in vivo samples, species-specific primers were employed for gene expression analysis in the tumor compartment (human) versus stroma compartment (mouse).

Notch [5] = conditions: Tammam et al., 2009; cited from earlier work
SCP2 bone metastasis = assay: Bone metastasis xenograft, SCP2 cells injected intracardially, MRK-003 treatment; assay type: in vivo, mouse
Method: as §1
Osteolysis was assessed by X-ray radiography. Anesthetized mice were placed on single wrapped films (X-OMAT AR, Eastman Kodak) and exposed to X-ray radiography at 35 kV for 15 s using a MX-20 Faxitron instrument. Films were developed using a Konica SRX-101A processor. Osteolytic lesions were identified on radiographs as demarcated radiolucent lesions in the bone and quantified using the ImageJ software (National Institutes of Health).
Hindlimb bones were excised from mice at the end point of each experiment, immediately after the last BLI time point. Following this, the tumor-bearing hind limb bones were fixed in 10% neutral-buffered formalin, decalcified in 10% EDTA for 2 weeks, and embedded in paraffin for hematoxylin and eosin (H&E), tartrate-resistant acid phosphatase (TRAP) (Kos et al., 2003, which is incorporated herein by reference as if fully set forth), or immunohistochemical staining. Histomorphometric analysis was performed on H&E stained bone metastasis samples using the Zeiss Axiovert 200 microscope and the AxioVision software version 4.6.3 SP1. For quantitative analysis of lesion area, a 5× objective was used to focus on the tumor region of interest and images were acquired using the AxioCamICc3 camera set to an exposure of 100 ms. Lesions that were larger than the field of view were quantified by acquiring multiple images to encompass the entire lesion. The “spline” function of the AxioVision software was used to outline the region of interest and subsequently quantify the lesion area. Osteoclast number was assessed as multinucleated TRAP^+ cells along the tumor-bone interface and reported as number/mm of interface (Yin et al., 2003, which is incorporated herein by reference as if fully set forth). Immunohistochemical analysis was performed with heat-induced antigen retrieval. Primary antibodies used were anti-JAGGED1 (Santa Cruz, sc-6011) and anti-Ki67 (Dako, Denmark). Biotinylated secondary antibody was used with Vectastain ABC Kit (Vector Laboratories) and DAB detection kit (Zymed) to reveal the positively stained cells with nuclei counterstained with hematoxylin.
as §2

IL-6 = assay: Murine IL-6 ELISA and qRT-PCR in osteoblast cocultures; assay type: cell-based, mouse; conditions: JAG1 OE coculture with MC3T3-E1; FIGS. 13B, 13C, 13E
Method: Quantitative levels of murine IL-6 in the conditioned medium of cultured and cocultured cells were determined in triplicate by ELISA according to the manufacturer's protocol (Quantikine immunoassay kit, R&D systems).
as §3

O=S1(=O)N[C@@]2(CN1CC(F)(F)F)[C@@H]1CC[C@H]2Cc2ccc(/C=C/CN3CCC(C(F)(F)F)CC3)cc2C1 [MRK-003]
efficacy with intermittent exposure in mice (Notch [1]; Tammam et al., 2009): robust efficacy
intestinal effect resulting from Notch inhibition (Notch [1]; recovery during dosing holiday): transient intestinal metaplasia (goblet cell induction)
osteolysis ([2]; JAG1 OE, FIG. 17D): reduced
reduction of bone metastasis in the JAG1 OE group ([2]; tumor signal decreased to levels of control group, FIGS. 17B-17C): more than 6 fold
growth rate of primary mammary tumors [3]: not altered
primary tumor xenografts of MDA231 sublines, control vs treated [3]: no difference
Notch target genes (Hes1, Hey1, HeyL and TGFβ1) mRNA in osteoblasts [4]: downregulated
duration of target engagement sufficient to induce potent Notch inhibition (Notch [5]): 48 h
reduction in bone metastasis burden by BLI (SCP2 bone metastasis; 100 mg/kg oral gavage twice a week, FIG. 16A): 5 fold
delay in the onset of bone metastasis (SCP2 bone metastasis; FIG. 16B): ~10 days
number of bone lesions (SCP2 bone metastasis; FIG. 16C): reduced
reduction in X-ray lesion area (SCP2 bone metastasis; FIG. 16D): 2 fold
decrease in the number of TRAP+ osteoclasts (SCP2 bone metastasis; bone-tumor interface, FIG. 16E): 3 fold
IL-6 transcription and secretion from osteoblasts (IL-6): dependent on the Notch pathway
